Here are results for twelve molecules from ChEMBL document CHEMBL3046650, “Hydrogenated and Dichiorinated N-Phthaloyl-L-threonines and Their Dehydrated Phthalimides with Root Growth-promoting Activity for Rice Seedings” (J Pestic Sci, 2000).

SMILES strings stand for the structures. Calls of active or inactive are those of the source. The rule behind the calls is not given here.

Data set [1] deals with Vigna mungo. As to the kind of experiment: Growth promoting activity in Vigna mungo (black gram) seedling hypocotyl at 1 x 10' -6 to 1 x 10' -3 M. In kind it is functional, organism-based.
Data set [2] relates to Lactuca sativa. The data set is described as follows: Phytotoxicity against Lactuca sativa cv. Gokuwase-CISCO (lettuce) seedling assessed as hypocotyl growth inhibition at 1 x 10' -3 M. In kind it is organism-based. To be noted: in vivo, 1000 µM.
Data set [3] has as its system Oryza sativa. The data set is described as follows: Phytotoxicity against Oryza sativa cv. Koshihikari (rice) seedling assessed as shoot growth inhibition. To be noted: in vivo. In kind it is organism-based.
Data set [4] has as its system Oryza sativa. The data set is described as follows: Growth promoting activity in Oryza sativa cv. Koshihikari (rice) seedling root at 1 x 10' -5 M relative to control. It is filed as functional, organism-based.
In data set [5] the test system is Oryza sativa. As to the kind of experiment: Growth promoting activity in Oryza sativa cv. Koshihikari (rice) seedling root at 1 x 10' -4 M relative to control. It is filed as functional.
Data set [6] has as its system Lactuca sativa. The data set is described as follows: Growth promoting activity in Lactuca sativa cv. Gokuwase-CISCO (lettuce) seedling root at 1 x 10' -6 to 1 x 10' -3 M. It is filed as functional, organism-based.
Data set [7] concerns Vigna mungo. As to the kind of experiment: Phytotoxicity against Vigna mungo (black gram) seedling assessed as root growth inhibition at 1 x 10' -6 to 1 x 10' -3 M. In kind it is organism-based. To be noted: in vivo.
For data set [8], the system named is Vigna mungo. As to the kind of experiment: Phytotoxicity against Vigna mungo (black gram) seedling assessed as hypocotyl growth inhibition at 1 x 10' -6 to 1 x 10' -3 M. To be noted: in vivo. In kind it is organism-based.
The test system of data set [9] is Brassica rapa subsp. pekinensis. The data set is described as follows: Phytotoxicity against Brassica rapa subsp. pekinensis (Chinese cabbage) cv. Kinshu seedling assessed as root growth inhibition at 1 x 10' -6 to 1 x 10' -3 M. It is filed as organism-based. To be noted: in vivo.
Data set [10] deals with Lactuca sativa. As to the kind of experiment: Phytotoxicity against Lactuca sativa cv. Gokuwase-CISCO (lettuce) seedling assessed as root necrosis at 1 x 10' -3 M. In kind it is organism-based. To be noted: in vivo, 1000 µM.
The test system of data set [11] is Vigna mungo. As to the kind of experiment: Growth promoting activity in Vigna mungo (black gram) seedling root at 1 x 10' -6 to 1 x 10' -3 M. It is filed as functional, organism-based.
Data set [12] has as its system Lactuca sativa. The data set is described as follows: Growth promoting activity in Lactuca sativa cv. Gokuwase-CISCO (lettuce) seedling hypocotyl at 1 x 10' -6 to 1 x 10' -3 M. In kind it is functional, organism-based.
Data set [13] concerns Oryza sativa. The data set is described as follows: Phytotoxicity against Oryza sativa cv. Koshihikari (rice) seedling assessed as root necrosis at 1 x 10' -3 M. It is filed as organism-based. To be noted: in vivo, 1000 µM.
For data set [14], the system named is Brassica rapa subsp. pekinensis. The data set is described as follows: Growth promoting activity in Brassica rapa subsp. pekinensis (Chinese cabbage) cv. Kinshu seedling root at 1 x 10' -6 to 1 x 10' -3 M. In kind it is functional, organism-based.
Data set [15] relates to Oryza sativa. The data set is described as follows: Phytotoxicity against Oryza sativa cv. Koshihikari (rice) seedling assessed as root growth inhibition at 1 x 10' -3 M. It is filed as organism-based. To be noted: in vivo, 1000 µM.
The test system of data set [16] is Brassica rapa subsp. pekinensis. As to the kind of experiment: Growth promoting activity in Brassica rapa subsp. pekinensis (Chinese cabbage) cv. Kinshu seedling root at 1 x 10' -3 M. In kind it is functional, organism-based.
Data set [17] has as its system Oryza sativa. The data set is described as follows: Growth promoting activity in Oryza sativa cv. Koshihikari (rice) seedling shoot at 1 x 10' -5 M. It is filed as functional, organism-based.
Data set [18] deals with Lactuca sativa. As to the kind of experiment: Phytotoxicity against Lactuca sativa cv. Gokuwase-CISCO (lettuce) seedling assessed as hypocotyl necrosis at 1 x 10' -3 M. In kind it is organism-based. To be noted: in vivo, 1000 µM.
Data set [19] relates to Brassica rapa subsp. pekinensis. The data set is described as follows: Phytotoxicity against Brassica rapa subsp. pekinensis (Chinese cabbage) cv. Kinshu seedling assessed as root growth inhibition at 1 x 10' -4 M. To be noted: in vivo, 100 µM. In kind it is organism-based.

`C/C=C(/C(=O)O)N1C(=O)[C@H]2CCCC[C@@H]2C1=O` (relative stereo): the outcome (in the data set on Vigna mungo [1]; with Oryza sativa [4]; in the data set with Lactuca sativa [6]; in the data set with Vigna mungo [11]; with Lactuca sativa [12]; in data set [14]) was inactive. Further, the Activity result in the data set with Lactuca sativa [2] is “Toxic”; in the data set on Oryza sativa [3], “Non-toxic”; with Vigna mungo [7], “Non-toxic”; with Vigna mungo [8] it was “Non-toxic”; in data set [9], “Non-toxic”; with Lactuca sativa [10] it was “Toxic”. In addition, in the data set with Oryza sativa [13], the Activity entry is “Non-toxic”. In addition, in the data set with Oryza sativa [5], the “fold change (FC)” value is 2.1.
Consider `C/C=C(/C(=O)O)N1C(=O)c2ccccc2C1=O`, for which the result with Vigna mungo [1], in the data set with Lactuca sativa [6], with Vigna mungo [11] and with Lactuca sativa [12] was inactive. Moreover, the Activity result in the data set on Lactuca sativa [2] is “Toxic”; in the data set on Oryza sativa [15], “Toxic”; in the data set on Vigna mungo [7], “Non-toxic”; in the data set with Vigna mungo [8], “Non-toxic”; with Lactuca sativa [10], “Toxic”. The result (in the data set with Oryza sativa [4]; in [16]) was Active. Besides, in the data set with Oryza sativa [5], the “fold change (FC)” value was 2.1.
As to `C[C@@H](O)[C@@H](C(=O)O)N1C(=O)C2=C(CCCC2)C1=O` [N-(3,4,5,6-TETRAHYDROPHTHALOYL)-L-THREONINE], the result (in the data set on Vigna mungo [1]; in the data set with Oryza sativa [4]; in the data set with Lactuca sativa [6]; in the data set with Vigna mungo [11]; in the data set on Lactuca sativa [12]; in data set [14]) was inactive. Also, the Activity result with Lactuca sativa [2] is recorded as “Toxic”; in the data set with Vigna mungo [7], “Non-toxic”; in the data set with Vigna mungo [8], “Non-toxic”; in data set [9], “Non-toxic”; in the data set on Lactuca sativa [10], “Toxic”; with Oryza sativa [13], “Toxic”. The “fold change (FC)” value in the data set with Oryza sativa [5] was 1.6. The result in the data set on Oryza sativa [17] was Active.
`C[C@@H](O)[C@@H](C(=O)O)N1C(=O)[C@H]2CC=CC[C@H]2C1=O` [CIS-1,2,3,6-TETRAHYDROPHTHALOYL-L-THREONINE]: the result (with Vigna mungo [1]; in the data set with Oryza sativa [4]; with Lactuca sativa [6]; with Vigna mungo [11]; in the data set with Lactuca sativa [12]; in data set [14]) was inactive. The Activity entry with Lactuca sativa [18] is “Toxic”; in the data set with Vigna mungo [7], “Non-toxic”; with Vigna mungo [8], “Non-toxic”; in data set [9], “Non-toxic”; with Lactuca sativa [10] it was “Toxic”; with Oryza sativa [13], “Non-toxic”. Further, the “fold change (FC)” value with Oryza sativa [5] turned out to be 1.6.
As to `C/C=C(/C(=O)O)N1C(=O)[C@H]2CC=CC[C@H]2C1=O`, the result with Vigna mungo [1], in the data set on Oryza sativa [4], in the data set on Lactuca sativa [6], with Vigna mungo [11] and with Lactuca sativa [12] was inactive. Further, the Activity entry in the data set on Lactuca sativa [2] is “Toxic”; in the data set with Vigna mungo [7] it was “Non-toxic”; with Vigna mungo [8] it was “Non-toxic”; in the data set on Lactuca sativa [10], “Toxic”; with Oryza sativa [13], “Non-toxic”. The “fold change (FC)” value in the data set on Oryza sativa [5] is 2.1. Moreover, in data set [16], the result was Active.
As to `C/C=C(/C(=O)O)N1C(=O)[C@H]2CCCC[C@H]2C1=O`, the outcome (in the data set on Vigna mungo [1]; with Oryza sativa [4]; in the data set on Lactuca sativa [6]; in the data set with Vigna mungo [11]; with Lactuca sativa [12]; in [14]) was inactive. Moreover, the Activity result in the data set on Oryza sativa [3] is on record as “Non-toxic”; in the data set with Lactuca sativa [18] it was “Toxic”; in the data set on Vigna mungo [7], “Non-toxic”; in the data set on Vigna mungo [8] it was “Non-toxic”; in [9], “Non-toxic”; in the data set on Lactuca sativa [10], “Toxic”. In addition, the Activity entry with Oryza sativa [13] is “Non-toxic”. Moreover, the “fold change (FC)” value with Oryza sativa [5] came to 2.1. Moreover, the result with Oryza sativa [17] was Active.
`C[C@@H](O)[C@@H](C(=O)O)N1C(=O)[C@H]2CCCC[C@H]2C1=O` [CIS-1,2,3,4,5,6-HEXAHYDROPHTHALOYL-L-THREONINE]: the outcome (in the data set on Vigna mungo [1]; with Oryza sativa [4]; in the data set with Lactuca sativa [6]; in the data set on Vigna mungo [11]; in the data set with Lactuca sativa [12]; in [14]) was inactive. In addition, the Activity result is “Non-toxic” with Oryza sativa [3]; “Toxic” with Lactuca sativa [18]; “Non-toxic” with Vigna mungo [7]; “Non-toxic” in the data set on Vigna mungo [8]; “Non-toxic” in data set [9]; “Toxic” with Lactuca sativa [10]. Moreover, the Activity result in the data set on Oryza sativa [13] is on record as “Non-toxic”. The “fold change (FC)” value with Oryza sativa [5] worked out at 1.6. Besides, the outcome with Oryza sativa [17] was Active.
Consider `C[C@@H](O)[C@@H](C(=O)O)N1C(=O)[C@H]2CCCC[C@@H]2C1=O` [TRANS-1,2,3,4,5,6-HEXAHYDROPHTHALOYL-L-THREONINE], for which the outcome (with Vigna mungo [1]; with Oryza sativa [4]; in the data set with Lactuca sativa [6]; in the data set on Vigna mungo [11]; with Lactuca sativa [12]; in [14]) was inactive. Further, the Activity entry in the data set with Lactuca sativa [2] is on record as “Toxic”; in the data set with Oryza sativa [3], “Non-toxic”; with Vigna mungo [7], “Non-toxic”; in the data set with Vigna mungo [8], “Non-toxic”; in data set [9], “Non-toxic”; in the data set on Lactuca sativa [10] it was “Toxic”. Besides, the Activity result in the data set with Oryza sativa [13] is “Non-toxic”. Moreover, the “fold change (FC)” value in the data set on Oryza sativa [5] is given as 1.6.
In the case of `C[C@@H](O)[C@@H](C(=O)O)N1C(=O)c2cc(Cl)c(Cl)cc2C1=O` [N-(4,5-DICHLOROPHTHALOYL)-L-THREONINE], the result (in the data set on Vigna mungo [1]; with Lactuca sativa [6]; in the data set on Vigna mungo [11]; in the data set with Lactuca sativa [12]; in [14]) was inactive. Further, the Activity entry is given as “Toxic” with Lactuca sativa [18]; “Non-toxic” in the data set on Vigna mungo [7]; “Non-toxic” in the data set on Vigna mungo [8]; “Non-toxic” in data set [9]; “Toxic” with Lactuca sativa [10]; “Non-toxic” with Oryza sativa [13]. The outcome with Oryza sativa [4] was Active. In addition, in the data set with Oryza sativa [5], the “fold change (FC)” value amounted to 1.6.
Consider `C/C=C(/C(=O)O)N1C(=O)c2cc(Cl)c(Cl)cc2C1=O` [4,5-Cl2P-BTEA], for which the result (in the data set on Vigna mungo [1]; in the data set with Lactuca sativa [6]; in the data set on Vigna mungo [11]; in the data set on Lactuca sativa [12]; in data set [14]) was inactive. The Activity entry is on record as “Toxic” in the data set on Lactuca sativa [18]; “Non-toxic” with Vigna mungo [7]; “Non-toxic” in the data set on Vigna mungo [8]; “Non-toxic” in [9]; “Toxic” with Lactuca sativa [10]; “Non-toxic” in the data set with Oryza sativa [13]. Further, in the data set on Oryza sativa [4], the result was Active. Also, in the data set with Oryza sativa [5], the “fold change (FC)” value is recorded as 2.1.
For the molecule `C[C@@H](O)[C@@H](C(=O)O)N1C(=O)c2ccccc2C1=O` [N PHTHALOYL-L-THREONINE], the outcome (with Vigna mungo [1]; in the data set with Lactuca sativa [6]; in the data set on Vigna mungo [11]; with Lactuca sativa [12]; in [14]) was inactive. The Activity result in the data set on Lactuca sativa [2] is reported as “Toxic”; in the data set with Oryza sativa [15] it was “Toxic”; in the data set on Vigna mungo [7], “Non-toxic”; in the data set on Vigna mungo [8] it was “Non-toxic”; in [9], “Non-toxic”; in the data set with Lactuca sativa [10], “Toxic”. Further, in the data set on Oryza sativa [4], the outcome was Active. Further, in the data set on Oryza sativa [5], the “fold change (FC)” value turned out to be 1.6.
Take `C/C=C(/C(=O)O)N1C(=O)C2=C(CCCC2)C1=O`: the Activity result in data set [19] is given as “Toxic”; in the data set with Lactuca sativa [2] it was “Toxic”; in the data set on Vigna mungo [7], “Non-toxic”; with Vigna mungo [8], “Non-toxic”; in the data set with Lactuca sativa [10], “Toxic”; with Oryza sativa [13] it was “Toxic”. The result with Vigna mungo [1], in the data set on Oryza sativa [4], with Lactuca sativa [6], in the data set with Vigna mungo [11] and in the data set with Lactuca sativa [12] was inactive. Further, the “fold change (FC)” value in the data set with Oryza sativa [5] amounted to 2.1. The outcome (in data set [16]; in the data set with Oryza sativa [17]) was Active.
